From ChEMBL document CHEMBL1201862, “PubChem BioAssay data set” (2004) come the findings set out here.

Test systems include DLD-1; HCT-116; HOP-18; IGROV-1; KM-20L2; Malme-3M; NCI-H23; NCI-H522; RXF 393; SF-295; SN12C; TK-10; UACC-257; XF498; OVCAR-3; 786-0.
Holding throughout (assay): NCI tumour cell line growth inhibition, 48 h

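Briefly, cells in 96-well plates were exposed to five compound concentrations for 48 h, and endpoints were estimated by linear interpolation. The concentration for 50% growth inhibition is given as GI50.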 Active and inactive are the calls of the source. Rule as the data show it: active = GI50 up to about 1.1 µM and inactive = higher. Non-standard residues stand in square brackets, D forms with d. Residues, ends and D or L forms follow the SMILES beside them. ξ: configuration not given here. Pen = CC(C)(S)[C@H](N)C(=O)O; ξL = CC(C)CC(N)C(=O)O

For the molecule `CCOC(=O)C(=O)NC12CC3CC(CC(C3)C1)C2`, the GI50 with DLD-1, in the assay with HCT-116, with HOP-18, in the assay with IGROV-1, in the assay on KM-20L2 and with Malme-3M was > 100 µM (inactive) in each case. Moreover, the GI50 in the assay on NCI-H23, in the assay on NCI-H522, with RXF 393, with SF-295, in the assay on SN12C and in the assay on TK-10 was > 100 µM (inactive) throughout. Also, the GI50 in the assay with UACC-257 and in the assay on XF498 was > 100 µM (inactive) in each case.

Consider `C=C1C[C@@H](O)C[C@@]2(C)C[C@@H]3OC(=O)C(=C)[C@@H]3C[C@H]12`, for which the GI50 in the assay with DLD-1 was 3.85 µM (inactive); in the assay on HCT-116 it was 3.43 µM (inactive); in the assay with HOP-18, 3.98 µM (inactive); in the assay on IGROV-1, 11.2 µM (inactive); with KM-20L2, 5.83 µM (inactive); in the assay with Malme-3M, 3.37 µM (inactive). The GI50 is 15.9 µM (inactive) with NCI-H23; 7.78 µM (inactive) in the assay with NCI-H522; 11.2 µM (inactive) in the assay on OVCAR-3; 6.34 µM (inactive) in the assay on RXF 393; 15.3 µM (inactive) in the assay on SF-295; 5.57 µM (inactive) in the assay with SN12C. Moreover, the GI50 with UACC-257 is 4.43 µM (inactive); in the assay with XF498, 0.678 µM (active).

`O=C(CC/C=C(/CS(=O)(=O)c1ccccc1)S(=O)(=O)c1ccccc1)c1ccccc1`: the GI50 was > 100 µM (inactive) in the assay with DLD-1; > 100 µM (inactive) in the assay with HCT-116; > 100 µM (inactive) in the assay on HOP-18; > 100 µM (inactive) with IGROV-1; > 100 µM (inactive) in the assay with KM-20L2; > 10 µM (inactive) with Malme-3M. For the same molecule, the GI50 is > 100 µM (inactive) with NCI-H23; 10.4 µM (inactive) in the assay with NCI-H522; 85.5 µM (inactive) in the assay with OVCAR-3; 70.8 µM (inactive) with RXF 393; > 100 µM (inactive) in the assay with SF-295; > 100 µM (inactive) with SN12C. The GI50 with TK-10 was > 100 µM (inactive); with UACC-257, > 100 µM (inactive); with XF498, 95.9 µM (inactive).

As to `C[n+]1[se]c2ccccc2c1Cl`, the GI50 is > 45 µM (inactive) in the assay on 786-0; 25.7 µM (inactive) in the assay with DLD-1; 16.9 µM (inactive) in the assay on HCT-116; 20.7 µM (inactive) in the assay on HOP-18; 31 µM (inactive) with IGROV-1; > 51.1 µM (inactive) in the assay with KM-20L2. Moreover, the GI50 with Malme-3M was 23.3 µM (inactive); in the assay on NCI-H23, 20.1 µM (inactive); in the assay on NCI-H522, 20.3 µM (inactive); in the assay with OVCAR-3, 27 µM (inactive); with RXF 393 it was 19.5 µM (inactive); in the assay on SF-295, 21.7 µM (inactive). Moreover, the GI50 in the assay on SN12C is 15.5 µM (inactive); with TK-10 it was > 43.4 µM (inactive); in the assay on UACC-257 it was 17.9 µM (inactive); in the assay on XF498, 37.2 µM (inactive).

On to `COC(=O)C(/C(=N/NC(N)=S)C(=O)Nc1ccccc1[N+](=O)[O-])c1cnc2ccccc2n1` (stereo not drawn), for which the GI50 in the assay on 786-0, in the assay with DLD-1, in the assay with HCT-116, in the assay on HOP-18, with IGROV-1 and in the assay on KM-20L2 was > 100 µM (inactive) each time. Further, the GI50 with Malme-3M, in the assay with NCI-H23, with NCI-H522, with RXF 393, with SF-295 and in the assay on SN12C was > 100 µM (inactive) throughout. Also, the GI50 in the assay on TK-10, in the assay on UACC-257 and with XF498 was > 100 µM (inactive) throughout.

Regarding `CSCC[C@H](NC(=O)C(CC(C)C)NC(=O)[C@H](Cc1c[nH]cn1)NC(=O)CNC(=O)[C@@H](NC(=O)[C@@H](C)NC(=O)[C@H](Cc1c[nH]c2ccccc12)NC(=O)[C@H](CCC(N)=O)NC(=O)[C@@H](N)CC(N)=O)C(C)(C)SC)C(N)=O` (stereo partly drawn) (H-NQW[dA][Pen](Me)GH[ξL]M-NH2), the GI50 in the assay on DLD-1, with HCT-116, in the assay on HOP-18, with IGROV-1, in the assay with KM-20L2 and in the assay on Malme-3M was > 100 µM (inactive) in each case. The GI50 in the assay on NCI-H23, in the assay with NCI-H522, in the assay on OVCAR-3, in the assay with RXF 393, in the assay on SF-295 and with SN12C was > 100 µM (inactive) throughout. The GI50 in the assay on UACC-257 and in the assay on XF498 was > 100 µM (inactive) in each case.
